Reference: ChEMBL document CHEMBL4477214

The compounds below were run on Influenza A virus (assay: Antiviral activity against influenza A virus H1N1 ATCC VR-1737 infected in MDCK cells after 48 hrs by hemagglutination assay). Conditions: H1N1 ATCC VR-1737, MDCK.
Assay type: functional, organism-based
With `O=C(O)/C(O)=C/C(=O)C1(Cc2ccc(Cl)cc2)CCN(Cc2ccccc2)CC1` the EC50 was 9 µM.

The compounds below were run on MDCK (assay: Cytotoxicity against MDCK cells after 48 hrs by cell-titre glo luminescence assay). Conditions: dog.
Assay type: cell-based, Canis lupus familiaris
For `O=C(O)/C(O)=C/C(=O)C1(Cc2ccc(Cl)cc2)CCN(Cc2ccccc2)CC1`, the CC50 was 284 µM.
`CN(Cc1cc(=O)c(O)cn1-c1ccc(-c2nnn[nH]2)cc1)c1ccc(Cl)cc1` was tested, and the CC50 was 280 µM.

The compounds below were run against Polymerase acidic protein (Influenza A virus (A/Puerto Rico/8/1934(H1N1)), UniProt P03433) (assay: Inhibition of 8-histidine tagged influenza virus H1N1 N-terminal PA endonuclease expressed in Escherichia coli BL21 cells using single-stranded 5'-FAM fluorophore/3'-TAMRA quencher)-labeled 17-mer ssDNA-oligomer substrate measured over 45 mins by FRET analysis). Conditions: not given.
For `Cc1c(O)c(=O)ccn1-c1ccccc1`, the IC50 was 18 µM.
`CN(Cc1cc(=O)c(O)co1)c1cccc(F)c1` was tested, and the IC50 was 3.2 µM.
`O=c1cc(CNCc2ccccc2)occ1O` showed an IC50 of 2.7 µM.
`Cc1occ(O)c(=O)c1C(=O)NCCc1ccccc1` showed an IC50 of 11.3 µM.
`CCOC(=O)c1c(C)n(-c2ccc(Oc3ccccc3)cc2)cc(O)c1=O` was tested, and the IC50 was 5.2 µM.
With `CN(Cc1cc(=O)c(O)co1)c1ccncc1` the IC50 was greater than 100 µM and the pIC50 was less than 4.
Compound `Cc1c(O)c(=O)ccn1C1CCCCC1` has an IC50 of 14 µM.
With `CCOC(=O)c1c(C)n(-c2ccccc2)cc(O)c1=O` the IC50 was 5.3 µM.
With `Cc1cc(=O)c(O)cn1C1CCOCC1` the IC50 was 0.73 µM.
`Cc1cc(=O)c(O)cn1-c1ccc(-c2ccccc2)cc1` showed an IC50 of 1.3 µM.
In the case of `COc1cccc(CNC(=O)c2c(C)occ(O)c2=O)c1`, the IC50 is reported as 22.1 µM.
With `CN(Cc1cc(=O)c(O)co1)c1ccc(F)cc1` the IC50 was 1.8 µM.
`CS(=O)(=O)NCc1cc(=O)c(O)co1` showed an IC50 of 4.8 µM.
